Reference: patent publication US8309557B2, “Pyrimidin-4-ylpropanedinitrile derivatives, processes for their preparation and their use as herbicides and plant growth regulators” (Bayer Intellectual Property GmbH, priority 2009, dated 2012)

Legend:
Format in all cases: in vivo
Matricaria inodora = assay: Herbicidal effect post-emergence, MATIN
Procedure: (§1) Seeds of mono- and dicotyledonous weed plants and crop plants are planted in wood-fiber pots in sandy loam, covered with earth and grown in a greenhouse under good growth conditions. 2 to 3 weeks after sowing, the test plants are treated in the single-leaf stage. The compounds according to the invention, formulated in the form of wettable powders (WP) or as emulsion concentrates (EC), are then sprayed onto the green plant parts as aqueous suspension or emulsion using an application rate of 600 to 800 l of water/ha (converted) with the addition of 0.2% by weight of wetting agent. After the test plants had been in the greenhouse for ca. 3 weeks under optimum growth conditions, the effect of the preparations is scored visually in comparison with untreated controls (herbicidal effect in percent (%): 100% effect=plants have died off, 0% effect=as control plants).

[1] = test system: Polygonum (Fallopia) convolvulus; assay: Herbicidal effect post-emergence, POLCO
Procedure: as §1

Abutilon theophrasti [2] = assay: Herbicidal effect post-emergence, ABUTH
Procedure: as §1

Amaranthus retroflexus [3] = assay: Herbicidal effect post-emergence, AMARE
Procedure: as §1

Ipomoea purpurea [4] = assay: Herbicidal effect post-emergence, PHBPU
Procedure: as §1

Setaria viridis [5] = assay: Herbicidal effect post-emergence, SETVI
Procedure: as §1

Echinochloa crus-galli = assay: Herbicidal effect post-emergence, ECHCG
Procedure: as §1

Lolium multiflorum = assay: Herbicidal effect pre-emergence, LOLMU; settings: 320 g/hectare, visual grading after 3 weeks vs untreated controls
Description: (§2) Seeds of mono- and dicotyledonous weed plants and crop plants are planted in wood-fiber pots in sandy loam and covered with earth. The compounds according to the invention, formulated in the form of wettable powders (WP) or as emulsion concentrates (EC), are then applied to the surface of the covering earth as aqueous suspension or emulsion at an application rate corresponding to 320 g/hectare at an application rate of 600 to 800 l of water/ha (converted) with the addition of 0.2% wetting agent.
(§3) Following treatment, the pots are placed in a greenhouse and kept under good growth conditions for the test plants. The visual grading of the damage to the test plants is carried out after a test time of 3 weeks in comparison to untreated controls (herbicidal effect in percent (%): 100% effect=plants have died off, 0% effect=as control plants).

Setaria viridis [6] = assay: Herbicidal effect pre-emergence, SETVI; settings: 320 g/hectare, visual grading after 3 weeks vs untreated controls
Description: as §2, §3

Abutilon theophrasti [7] = assay: Herbicidal effect pre-emergence, ABUTH; settings: 320 g/hectare, visual grading after 3 weeks vs untreated controls
Description: as §2, §3

Amaranthus retroflexus [8] = assay: Herbicidal effect pre-emergence, AMARE; settings: 320 g/hectare, visual grading after 3 weeks vs untreated controls
Description: as §2, §3

[9] = test system: Tripleurospermum inodorum; assay: Herbicidal effect pre-emergence, MATIN; settings: 320 g/hectare, visual grading after 3 weeks vs untreated controls
Description: as §2, §3

Veronica persica [10] = assay: Herbicidal effect pre-emergence, VERPE; settings: 320 g/hectare, visual grading after 3 weeks vs untreated controls
Description: as §2, §3

Veronica persica [11] = assay: Herbicidal effect post-emergence, VERPE
Procedure: as §1

Viola tricolor [12] = assay: Herbicidal effect post-emergence, VIOTR
Procedure: as §1

Stellaria media = assay: Herbicidal effect post-emergence, STEME
Procedure: as §1

Ipomoea purpurea [13] = assay: Herbicidal effect pre-emergence, PHBPU; settings: 320 g/hectare, visual grading after 3 weeks vs untreated controls
Description: as §2, §3

Polygonum convolvulus = assay: Herbicidal effect pre-emergence, POLCO; settings: 320 g/hectare, visual grading after 3 weeks vs untreated controls
Description: as §2, §3

Viola tricolor [14] = assay: Herbicidal effect pre-emergence, VIOTR; settings: 320 g/hectare, visual grading after 3 weeks vs untreated controls
Description: as §2, §3

Alopecurus myosuroides = assay: Herbicidal effect pre-emergence, ALOMY; settings: 320 g/hectare, visual grading after 3 weeks vs untreated controls
Description: as §2, §3

SMILES	Effect in % in respect of stated plant, MATIN (Matricaria inodora)	Effect in % in respect of stated plant, POLCO [1]	Effect in % in respect of stated plant, ABUTH (Abutilon theophrasti [2])	Effect in % in respect of stated plant, AMARE (Amaranthus retroflexus [3])	Effect in % in respect of stated plant, PHBPU (Ipomoea purpurea [4])	Effect in % in respect of stated plant, SETVI (Setaria viridis [5])	Effect in % in respect of stated plant, ECHCG (Echinochloa crus-galli)	Effect in % in respect of stated plant, LOLMU (Lolium multiflorum)	Effect in % in respect of stated plant, SETVI (Setaria viridis [6])	Effect in % in respect of stated plant, ABUTH (Abutilon theophrasti [7])	Effect in % in respect of stated plant, AMARE (Amaranthus retroflexus [8])	Effect in % in respect of stated plant, MATIN [9]	Effect in % in respect of stated plant, VERPE (Veronica persica [10])	Effect in % in respect of stated plant, VERPE (Veronica persica [11])	Effect in % in respect of stated plant, VIOTR (Viola tricolor [12])	Effect in % in respect of stated plant, STEME (Stellaria media)	Effect in % in respect of stated plant, PHBPU (Ipomoea purpurea [13])	Effect in % in respect of stated plant, POLCO (Polygonum convolvulus)	Effect in % in respect of stated plant, VIOTR (Viola tricolor [14])	Effect in % in respect of stated plant, ALOMY (Alopecurus myosuroides)
COc1c(Cl)ccc(-c2nc(N)c(Cl)c(C(C#N)C#N)n2)c1F.N [Compound 359]	90%	90%	80%	100%	80%	80%	90%	80%	90%	90%	100%	100%	100%	–	–	–	–	–	–	–
N#CC(C#N)c1nc(C2CC2)nc(N)c1Cl [compound 249]	90%	90%	83%	93%	90%	–	90%	–	–	90%	90%	90%	90%	100%	87%	80%	85%	90%	95%	–
N#CC(C#N)c1nc(-c2ccc(Br)cc2F)nc(N)c1Cl [compound 208]	100%	80%	90%	100%	80%	–	–	–	90%	100%	80%	–	100%	90%	90%	90%	–	–	–	–
Cc1ccc(-c2nc(N)c(Cl)c(C(C#N)C#N)n2)c(F)c1F [compound 202]	80%	90%	90%	100%	–	–	90%	–	–	–	90%	–	100%	–	–	–	100%	–	–	–
N.N#CC(C#N)c1nc(-c2ccc(C(F)(F)F)cc2)nc(N)c1Cl [Compound 318]	90%	80%	80%	–	–	–	–	–	–	–	–	–	100%	90%	–	–	–	80%	–	–
N.N#CC(C#N)c1nc(-c2ccc(Cl)cc2F)nc(N)c1Cl [Compound 345]	90%	80%	–	100%	90%	–	–	–	80%	90%	90%	80%	100%	90%	80%	90%	–	–	80%	80%
CC(C)(C)c1nc(N)c(Cl)c(C(C#N)C#N)n1.N [compound 455]	–	–	–	–	–	–	–	80%	–	–	–	–	–	–	–	–	–	–	100%	–
N.N#CC(C#N)c1nc(-c2ccc(Cl)cc2)nc(N)c1Cl [Ex. No. 308, Ammonium [6-amino-5-chloro-2-(4-chlorophenyl)pyrimidin-4-yl](dicyano)methanide]	93%	100%	93%	100%	90%	87%	88%	–	90%	80%	100%	90%	100%	97%	88%	92%	95%	90%	100%	80%
CNC.N#CC(C#N)c1nc(-c2ccc(Cl)cc2)nc(N)c1Cl [Compound 310]	85%	85%	85%	95%	80%	80%	90%	–	90%	–	100%	80%	100%	87%	90%	80%	–	–	100%	–
N#CC(C#N)c1nc(C2CC2)nc(N)c1F [compound 248]	80%	–	–	80%	–	–	–	–	–	–	–	80%	90%	90%	–	80%	80%	–	–	–
Cc1ccc(-c2nc(N)c(Cl)c(C(C#N)C#N)n2)c(F)c1F.N [Compound 387]	–	100%	90%	100%	–	–	90%	–	–	–	–	–	100%	80%	–	–	–	–	–	80%
